According to patent publication US20030119775A1, “Respiration uncoupling protein” (DUKE UNIVERSITY, priority 1997, published 2003):

Experiments:
[1] = system: UCP2 mRNA; test: UCP2 mRNA levels in mouse tissues after treatment; assay type: in vivo, Swiss mice
Description: Regulation of UCP2 has been examined for factors that would regulate UCP1. In 11-week-old fed male Swiss mice, UCP2 mRNA was detected in BAT, WAT, thigh muscle and liver. […] Thus, UCP2 is regulated very differently than UCP1, which is induced by cold and β3 agonists.

[2] = system: UCP2 expression in Rat Basophilic Leukemia cell (RBL); test: Northern blot of UCP2 expression in RBL cells; assay type: cell-based; set-up: dose or concentration left out as unconfirmed
Description: (A) A tumor mast cell line, the Rat Basophilic Leukemia cell (RBL), is a model system for studies of immune system signal transduction. In the RBL cell, binding of an antigen to the IgE receptor on the cell surface results in the activation of phospholipase C-gamma (PLCg). This event leads to the activation of protein kinase C (PKC) and an increase in intracellular calcium which are required for degranulation and gene expression in RBL cells. Several drugs can mimic the intracellular events and degranulation occuring in this cell type in response to antigen activation of the IgE receptor. The inophore Ionomycin causes the release of calcium from intracellular calcium stores and the phorbol ester PMA is able to directly activate PKC. Both of these drugs are required to achieve maximal activation of RBL cells. In order to determine the expression level of UCP2 in RBL cells, these cells were treated with Ionomycin ([…]), PMA ([…]) or both drugs.

[3] = system: mitochondria isolated from yeast; test: Respiratory rates in mitochondria isolated from yeast; assay type: biochemical
Description: Respiratory rates have been measured in mitochondria isolated from yeast containing the empty pYeDP vector and the pUCP2 vector (Table 1). […] Addition of ADP stimulates respiration more in control mitochondria, again showing the UCP2 mitochondria are more uncoupled.

[4] = system: mitochondrial potential of transformed yeast; test: Flow cytometry of mitochondrial membrane potential with DiOC6(3) in transformed yeast; assay type: cell-based, Saccharomyces cerevisiae
Description: FIG. 2. Flow cytometry analysis of membrane potential following the expression of UCP2 in S. cerevisiae; comparison of wild-type UCP1 and non-active UCP1 mutants. The number of cells (counts, Y-axis) is represented on a logarithmic scale of 1024 channels. The X-axis is a logarithmic scale of fluorescence intensity. A shift of the curve towards the left indicates a decreased mitochondrial potential. The horizontal bar on the left indicates the position of cells treated with mCICCP, a chemical uncoupler. The expression of UCP2, UCP1 or UCPmut mRNA in recombinant yeast, as well as its absence in wild type yeast, was checked by Northern blots.
(§1) Yeast transfections and functional analysis using flow cytometry. The diploid yeast (Saccharomyces cerevisiae) strain W303 (a/α; ade2-10; his 3-11-15; leu2-2, 112; ura3-1; can1-100; try-Δ1) was used for expression of UCP2. The pYedP-UCP2 or UCPmut expression vectors were introduced into yeast by electroporation and transformants were selected for uracil […] as described by Bouillaud et al (EMBO J. 13:1990 (1994)). Expression of the UCP2, UCP1 or UCPmut under the control of the gal-cyc promoter was induced by galactose in the absence of glucose. Growth of yeast for flow cytometry analysis and measurement of mitochondrial membrane potential using the DiOC6(3) fluorescent probe (3,3′-dihexyloxacarbocyanine iodine, Molecular Probes, Eugene, Oreg.) are described by Bouillaud et al (EMBO J. 13:1990 (1994)).
The in vivo decrease of membrane potential associated with uncoupling of respiration was analyzed by flow cytometry of yeast labeled with the potential sensitive probe DiOC6(3) . […] In the case of UCP2, 2 peaks were observed, one equivalent to cells expressing UCP1 and a second peak corresponding to a very low mitochondrial potential. Mean fluorescence intensities were: empty vector, 65.5; UCPmut, 43.0; UCP1, 22.5; UCP2, 15.5 and UCP2+mCICCP, 0.4 (FIG. 2). Very similar results were obtained in two additional experiments.

[5] = Roe et al, Metabolism 46:359 (1997); cited from earlier work
[6] = system: UCP2 mRNA in macrophage RAW cells; test: UCP2 mRNA in cultured macrophage RAW cells, northern normalized for actin; assay type: cell-based, mouse; details: macrophages treated with LPS
Description: (B) Bacterial lipopolysaccharide (LPS) regulates UCP2 mRNA in macrophages. Bacterial LPS is known to induce many of the features of infection, including fever. Thioglycolate elicited mouse macrophage (peritoneal exudate cells, PEC) have been studied for regulation of UCP2 mRNA by LPS. […] A study has also be made of UCP2 expression in cultured mouse macrophage RAW cells. These cells express UCP2. […] The LPS mediated decrease of UCP2 is not affected by indomethacin or by PGE2. All fo the macrophage northerns are normalized for actin expression and have been repeated at least once. […] The results are consistent with a role of UCP2 in immune function.

[7] = system: yeast (Saccharomyces cerevisiae) strain W303; test: Growth rate (instantaneous generation time) of transformed yeast after galactose induction; assay type: cell-based; details: liquid medium, galactose-induced expression; ±SD
Description: as §1
To test the hypothesis that UCP2 is an uncoupling protein, yeast were transfected with UCP2 in an expression vector as previously reported for UCP1 (Bouillaud et al, EMBO J. 13:1990 (1994)). Rates of growth in liquid medium of transformed yeast were measured in the presence of galactose, which induces expression. Instantaneous generation times were compared after induction of vector, UCP2, control (empty) and UCP1 expression vectors. […]

[8] = yeast carrying the expression vector, lower = decreased mitochondrial potential

## leptin: leptin, shown to increase sympathetic outflow to brown fat
[1]; 2 μg, 2×/day for 4 days
  Effect on UCP2 expression: failed to increased UCP2 expression
[1]; general statement: in vitro or in vivo
  Influence on UCP2 expression: not to influence UCP2 expression

## C[C@H](CCC(=O)O)C[C@H](C)C[C@H](C)C(=O)/C=C(\O)[C@H](C)C[C@H](C)C/C=C/[C@@H](C)[C@@H](O)[C@@H](C)[C@@H](O)C[C@@H]1CC[C@@](C)([C@H]2CC[C@@](C)([C@@H](C)O)O2)O1 [Ionomycin]
[2]
  Induction of UCP2 expression versus untreated control cells: ~4 fold

## N#CC(C#N)=NNc1ccc(OC(F)(F)F)cc1 [FCCP]
[3]; control (pYeDP) mitochondria
  Respiratory rate increase factor upon addition of uncoupler: 7.1
[3]; pUCP2 mitochondria
  Respiratory rate increase factor upon addition of uncoupler: 4.3

## N#CC(C#N)=NNc1cccc(Cl)c1 [mCICCP]
[4]; UCP2-expressing yeast treated with mCICCP
  Mean fluorescence intensity (DiOC6(3)): 0.4

## C[C@H](Cc1ccc2c(c1)OC(C(=O)[O-])(C(=O)[O-])O2)NC[C@H](O)c1cccc(Cl)c1.[Na+].[Na+] [CL316,243]
[1]; 11-week-old fed male Swiss mice, BAT, WAT, thigh muscle and liver, treatment for 10 days
  Effect on UCP2 mRNA levels: did not influence UCP2 mRNA levels

## COc1ccc2c(c1)c(CC(=O)O)c(C)n2C(=O)c1ccc(Cl)cc1 [indomethacin]
[5]
  Effect on increased O2 consumption associated with cachexia of malignancy: attenuated
[6]
  Effect on the LPS mediated decrease of UCP2: not affected

## CCCCCCCCCCCCCC(=O)O[C@@H]1[C@@H](C)[C@@]2(O)[C@@H](C=C(CO)C[C@]3(O)C(=O)C(C)=C[C@@H]23)[C@@H]2C(C)(C)[C@]12OC(C)=O [PMA]
[2]
  Induction of UCP2 expression versus untreated control cells: ~4 fold

## CCCCC[C@H](O)/C=C/[C@H]1[C@H](O)CC(=O)[C@@H]1C/C=C\CCCC(=O)O [PGE2]
[6]
  Effect on the LPS mediated decrease of UCP2: not affected

B1: UCP1: uncoupling protein-1 of brown adipose tissue, expressed in yeast for comparison (protein, UniProt P25874 1-307, looked up)
Mitochondrial brown fat …: MGGLTASDVHPTLGVQLFSAGIAACLADVITFPLDTAKVRLQVQGECPTSSVIRYKGVLGTITAVVKTEGRMKLYSGLPAGLQRQISSASLRIGLYDTVQEFLTAGKETAPSLGSKILAGLTTGGVAVFIGQPTEVVKVRLQAQSHLHGIKPRYTGTYNAYRIIATTEGLTGLWKGTTPNLMRSVIINCTELVTYDLMKEAFVKNNILADDVPCHLVSALIAGFCATAMSSPVDVVKTRFINSPPGQYKSVPNCAMKVFTNEGPTAFFKGLVPSFLRLGSWNVIMFVCFEQLKRELSKSRQTMDCAT
[7]
  Instantaneous generation time: 226 ± 10 min
[4]; [8]
  Mean fluorescence intensity (DiOC6(3)): 22.5

B2: UCP2: uncoupling protein-2, expressed in yeast from the pYedP-UCP2 expression vector (protein, UniProt P55851 1-309, looked up)
Dicarboxylate carrier SLC25A8: MVGFKATDVPPTATVKFLGAGTAACIADLITFPLDTAKVRLQIQGESQGPVRATASAQYRGVMGTILTMVRTEGPRSLYNGLVAGLQRQMSFASVRIGLYDSVKQFYTKGSEHASIGSRLLAGSTTGALAVAVAQPTDVVKVRFQAQARAGGGRRYQSTVNAYKTIAREEGFRGLWKGTSPNVARNAIVNCAELVTYDLIKDALLKANLMTDDLPCHFTSAFGAGFCTTVIASPVDVVKTRYMNSALGQYSSAGHCALTMLQKEGPRAFYKGFMPSFLRLGSWNVVMFVTYEQLKRALMAACTSREAPF
[7]
  Instantaneous generation time: 260 ± 29 min
[4]; [8]
  Mean fluorescence intensity (DiOC6(3)): 15.5
